According to ChEMBL document CHEMBL2150872, “A transcription factor hijacking to regulate RARα by using a chimeric molecule of retinoic acid and a DNA alkylator” (Bioorg Med Chem Lett, 2011):
Calls of active or inactive are those of the source. No cut-off for these calls is given here.

Key:
[1] = Induction of RARalpha recruitment to [gamma-32P]-5'-end labeled pUC18 DNA fragment at 1 mM after 30 mins by EMSA
Nucleic Acid [2] = experiment: Binding affinity to [gamma-32P]-5'-end labeled pUC18 DNA fragment assessed as alkylation at N7 positions of guanine base by strand-breakage assay; format: nucleic-acid assay
[3] = target: T1, Retinoic acid receptor alpha (Homo sapiens) (UniProt P10276); experiment: Inhibition of transactivation of RARalpha overexpressed in COS cells after 24 hrs by luciferase reporter gene assay in presence of ATRA; format: cell-based
T1 sequence (whole entry): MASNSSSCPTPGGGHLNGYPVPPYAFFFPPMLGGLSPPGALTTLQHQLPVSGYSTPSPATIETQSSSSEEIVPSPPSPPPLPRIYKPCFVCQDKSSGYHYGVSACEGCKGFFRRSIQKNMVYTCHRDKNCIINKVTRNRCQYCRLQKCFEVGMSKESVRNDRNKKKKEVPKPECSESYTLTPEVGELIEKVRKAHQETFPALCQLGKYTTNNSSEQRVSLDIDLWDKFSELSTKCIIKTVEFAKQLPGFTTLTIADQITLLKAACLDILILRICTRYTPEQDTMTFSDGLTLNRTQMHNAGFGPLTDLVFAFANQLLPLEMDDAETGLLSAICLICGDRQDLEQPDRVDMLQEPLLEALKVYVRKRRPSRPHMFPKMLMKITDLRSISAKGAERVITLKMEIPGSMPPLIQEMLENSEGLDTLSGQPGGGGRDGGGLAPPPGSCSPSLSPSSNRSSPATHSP

[4] = target: T1, Retinoic acid receptor alpha (Homo sapiens); experiment: Displacement of [3H]ATRA from RARalpha overexpressed in COS cell extract at 10 nM after 12 hrs by liquid scintillation counting; format: cell-free
[5] = target: T1, Retinoic acid receptor alpha (Homo sapiens); experiment: Displacement of [3H]ATRA from RARalpha overexpressed in COS cell extract after 12 hrs by liquid scintillation counting; format: cell-free
[6] = Induction of RARalpha recruitment to [gamma-32P]-5'-end labeled pUC18 DNA fragment at 10 mM after 30 mins by EMSA
Nucleic Acid [7] = experiment: Binding affinity to [gamma-32P]-5'-end labeled pUC18 DNA fragment by autoradiography; format: nucleic-acid assay

| SMILES | Activity [1] | Activity (Nucleic Acid [2]) | inhibition [3] | Activity [4] | Activity [5] | Activity [6] | Activity (Nucleic Acid [7]) |
| --- | --- | --- | --- | --- | --- | --- | --- |
| O=C(O)CCCc1ccc(N(CCCl)CCCl)cc1 | inactive | Active | – | – | – | – | – |
| CC1=C(/C=C/C(C)=C/C=C/C(C)=C/C(=O)NCCCc2ccc(N(CCCl)CCCl)cc2)C(C)(C)CCC1 | – | Active | Dose-dependent effect | Active | Dose-dependent effect | Active | Active |
